Laboratory results as given in publication PMC8586955, “Interaction Study between ESIPT Fluorescent Lipophile-Based Benzazoles and BSA” (Molecules, 2021).

target: T1, bovine serum albumin (BSA) (Bos taurus, UniProt P02769); assay: BSA intrinsic fluorescence quenching titration, ex […] nm; type: binding; settings: double-log; PBS pH 7.2, 25 °C, BSA 11 µM, ligand 0-20 µM
T1 construct: gene ALB
T1 sequence (P02769 25-607): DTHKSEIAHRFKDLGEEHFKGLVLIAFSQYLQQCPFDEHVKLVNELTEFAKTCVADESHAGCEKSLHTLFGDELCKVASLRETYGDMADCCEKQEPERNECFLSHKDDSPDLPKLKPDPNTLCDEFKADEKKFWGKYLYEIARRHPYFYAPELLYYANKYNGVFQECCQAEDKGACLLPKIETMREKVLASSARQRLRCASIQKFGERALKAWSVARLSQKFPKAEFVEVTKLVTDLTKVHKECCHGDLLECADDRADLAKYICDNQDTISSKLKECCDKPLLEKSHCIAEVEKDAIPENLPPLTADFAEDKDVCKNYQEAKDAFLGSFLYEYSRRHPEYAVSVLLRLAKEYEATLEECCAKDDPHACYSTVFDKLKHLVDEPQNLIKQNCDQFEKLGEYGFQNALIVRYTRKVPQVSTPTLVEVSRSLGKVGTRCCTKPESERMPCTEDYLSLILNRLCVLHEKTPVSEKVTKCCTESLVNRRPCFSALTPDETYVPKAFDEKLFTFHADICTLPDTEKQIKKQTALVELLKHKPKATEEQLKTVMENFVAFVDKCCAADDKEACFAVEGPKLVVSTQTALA

Compound	KA (×10^4 M^-1)
CCCCNCc1cc(C)c(O)c(-c2nc3ccccc3o2)c1 [compound 12, benzazole 12]	0.61 ×10^4 M^−1
CCCCCCCCCCCCNCc1cc(C)c(O)c(-c2nc3ccccc3o2)c1 [compound 13, benzazole 13]	0.74 ×10^4 M^−1
CCCCCCCCCCCCCCCCCCNCc1cc(C)c(O)c(-c2nc3ccccc3o2)c1 [compound 14, benzazole 14]	0.59 ×10^4 M^−1
CCCCNCc1cc(C)c(O)c(-c2nc3ccccc3s2)c1 [compound 15, benzazole 15]	0.73 ×10^4 M^−1
CCCCCCCCCCCCNCc1cc(C)c(O)c(-c2nc3ccccc3s2)c1 [compound 16, benzazole 16]	0.79 ×10^4 M^−1
CCCCCCCCCCCCCCCCCCNCc1cc(C)c(O)c(-c2nc3ccccc3s2)c1 [compound 17, benzazole 17]	0.69 ×10^4 M^−1
